# Source: patent US6812230B2, “Non-peptide CCR1 receptor antagonists for the treatment of progressive renal fibrosis” (Schering Aktiengesellschaft, priority 2001, dated 2004)
# Tests used:
# [1] = system: collagen I protein; experiment: Mouse UUO model: collagen I protein expression by Western blotting; assay type: in vivo, C57BL/6 mice; settings: 10 days following UUO (UUO BX 1-10 d), Western blot
# Procedure: (§1) Contralateral kidneys served as intraindividual controls.
# From each mouse, a specimen of both kidneys was snap frozen in liquid nitrogen and stored at −80° C. Kidneys were homogenized in RIPA buffer (50 mM Tris-HCl, pH 8.0, 1% Nonidet P40, 0.5% sodium deoxycholate, 150 mM NaCl, 0.1% SDS, complete Protease-inhibitor tablet (Roche)). Extracted proteins were boiled in loading buffer for 10 minutes, resolved by 8% SDS-PAGE under reducing conditions and transferred to an Immobilon-P membrane (Millipore). After blocking, the filter was incubated with the rabbit polyclonal anti-collagen I antibody (1:1000 in blocking solution, Chemicon) and immune complexes were visualized using horseradish peroxidase-conjugated goat anti-rabbit antibody (1:5000 in blocking solution, Jackson ImmunoResearch) and then processed for detection by enhanced chemiluminescence (ECL, Amersham Pharmacia).
# [2] = system: renal CCR1, CCR2, CCR5 and collagen I mRNA; experiment: Mouse UUO model: renal chemokine receptor and collagen I mRNA expression by real-time quantitative RT-PCR; assay type: in vivo, C57BL/6 mice; settings: 10 days following UUO
# Procedure: as §1
# From each mouse, a specimen of both kidneys was snap frozen in liquid nitrogen and stored at −80° C. Total RNA was prepared as described in Chomczynski, P. and Sacci, N., Anal. Biochem. (1987), Vol. 162, pp. 156-159. The RNA pellet was air-dried, dissolved in DEPC-treated water, and stored at −80° C. One μg of total RNA was subjected to random-primed (Hexamer, Roche) reverse transcription at 42° C. for 1 hour using a modified MMLV reverse transcriptase (Superscript, Life Technologies). Real time RT-PCR was performed on a TaqMan ABI 7700 Sequence Detection System (PE Biosystems) using a heat-activated Taq DNA polymerase (Amplitaq Gold, PE Biosystems). Thermal cycler conditions contained holds at 50° C. for 2 minutes and 95° C. for 10 minutes followed by 40 cycles of 95° C. for 15 seconds and 60° C. for 60 seconds. GAPDH was used as reference gene. The following oligonucleotide primers (300 nM) and probes (100 nM) (PE Biosystems) were used: (a) murine collagen 1α1 (gb X54876; bp 1984-2102); forward primer: 5′-[…]-3′ (SEQ ID NO: 1); reverse primer: 5′-[…]-3′ (SEQ ID NO: 2); internal fluorescence labeled probe (FAM): 5′-[…]-3′ (SEQ ID NO: 3); (b) murine GAPDH (gb M32599, bp 730-836); forward primer: 5′-[…]-3′ (SEQ ID NO: 4); reverse primer: 5′-[…]-3′ (SEQ ID NO: 5); internal fluorescence labeled probe (VIC): 5′-[…]-3′ (SEQ ID NO: 6); (c) murine CCR1 (gb NM_009912, bp 487-586); forward primer: 5′-[…]-3′ (SEQ ID NO: 7); reverse primer: 5′-[…]-3′ (SEQ ID NO: 8); internal fluorescence labeled probe (T1): 5′-[…]-3′ (SEQ ID NO: 9); (d) murine CCR2 (gb NM_009915, bp 984-1095); forward primer: 5′-[…]-3′ (SEQ ID NO: 10); reverse primer: 5′-[…]-3′ (SEQ ID NO: 11); internal fluorescence labeled probe (T1, FAM): 5′-[…]-3′ (SEQ ID NO: 12); and (e) murine CCR5 (gb D83648, bp 1065-1191); forward primer: 5′-[…]-3′ (SEQ ID NO: 13); reverse primer: 5′-[…]-3′ (SEQ ID NO: 14); internal fluorescence labeled probe (T1, FAM): 5′-[…]-3′ (SEQ ID NO: 15).
smiles,measurement,setting,value
"C[C@@H]1CN(Cc2ccc(F)cc2)CCN1C(=O)COc1ccc(Cl)cc1NC(N)=O [BX471, (2R)-1-((4-chloro-2-(ureido)phenoxy)methyl)carbonyl-2-methyl-4-(4-fluorobenzyl)piperazine]",collagen I protein in renal extracts from the obstructed kidneys vs vehicle,[1],decrease
same,renal collagen I mRNA expression in obstructed kidneys vs vehicle,[2]; p<0.05,significantly reduced
same,renal CCR5 mRNA expression in obstructed kidneys vs vehicle,[2]; p=0.003,significantly reduced
same,renal CCR1 mRNA expression in obstructed kidneys vs vehicle,[2]; p=0.005,significantly reduced
same,renal CCR2 mRNA expression in obstructed kidneys vs vehicle,[2]; p=0.07,"reduced, although this decrease did not reach statistical significance"
